Legend:
[1] = molecular target: Mab 4 (monoclonal antibody to hGH); assay: Binding of Mab 4 to hGH and hGH phagemid particles (ELISA); conditions: read-out: IC50 (concentration to give half-maximal binding to the Mab)
Procedure: (§1) After 2 hours at room temperature (rt), the plates were washed well and the indicated Mab (Cunningham et al. supra) was added at 1 μg/ml in buffer A for 2 hours at rt. Following washing, horseradish peroxidase conjugated goat anti-mouse IgG antibody was bound at rt for 1 hour. After a final wash, the peroxidase activity was assayed with the substrate, o-phenylenediamine.

[2] = molecular target: Mab 1 (monoclonal antibody to hGH); assay: Binding of Mab 1 to hGH and hGH phagemid particles (ELISA); conditions: read-out: IC50 (concentration to give half-maximal binding to the Mab)
Procedure: as §1

[3] = molecular target: Mab 2 (monoclonal antibody to hGH); assay: Binding of Mab 2 to hGH and hGH phagemid particles (ELISA); conditions: read-out: IC50 (concentration to give half-maximal binding to the Mab)
Procedure: as §1

[4] = molecular target: Mab 3 (monoclonal antibody to hGH); assay: Binding of Mab 3 to hGH and hGH phagemid particles (ELISA); conditions: read-out: IC50 (concentration to give half-maximal binding to the Mab)
Procedure: as §1

[5] = molecular target: Mab 6 (monoclonal antibody to hGH); assay: Binding of Mab 6 to hGH and hGH phagemid particles (ELISA); conditions: read-out: IC50 (concentration to give half-maximal binding to the Mab)
Procedure: as §1

[6] = molecular target: Mab 7 (monoclonal antibody to hGH); assay: Binding of Mab 7 to hGH and hGH phagemid particles (ELISA); conditions: read-out: IC50 (concentration to give half-maximal binding to the Mab)
Procedure: as §1

[7] = molecular target: Mab 5 (monoclonal antibody to hGH); assay: Binding of Mab 5 to hGH and hGH phagemid particles (ELISA); conditions: read-out: IC50 (concentration to give half-maximal binding to the Mab)
Procedure: as §1

[8] = molecular target: Mab 8 (monoclonal antibody to hGH); assay: Binding of Mab 8 to hGH and hGH phagemid particles (ELISA); conditions: read-out: IC50 (concentration to give half-maximal binding to the Mab)
Procedure: as §1

[9] = molecular target: anti-β endorphin monoclonal antibody; conditions: cited from earlier work

Substance | IC50 [1] | IC50 [2] | IC50 [3] | IC50 [4] | IC50 [5] | IC50 [6] | IC50 [7] | IC50 [8] | Kd [9]
Human growth hormone [hGH] | 0.1 nM | 0.4 nM | 0.04 nM | 0.2 nM | 0.07 nM | 0.1 nM | 0.2 nM | 0.1 nM | –
β-endorphin peptide: parent β-endorphin peptide sequence recognised by the anti-β endorphin monoclonal antibody | – | – | – | – | – | – | – | – | ~7 nM

Source: patent publication US5688666A, “Growth hormone variants with altered binding properties” (Genentech, Inc., priority 1994, dated 1997)
